Patent US20050196375A1, “Methods of applying antibiotic compounds to polyurethane biomaterials using textile dyeing technology” (priority 2000, published 2005)

Columns and labels:
[1] = not given; remark: listed apart in the source

standard affinity of cipro for cPU (T 318.15 K, RT ln K): 1.12 kcal/mol
saturation value (as quoted in the description): 0.45 g/kg
exhaustion of cipro on cPU ([1]; applied concentration 0.5% owf, pH 8.6, 20:1, 45° C., 3.5 hours): about 60%
ciprofloxacin taken up by cPU ([1]; dyeing temperature 55° C., pH 8.6, 20:1, 2% owf, 3.5 hours): 70%
cipro exhausted on cPU ([1]; dyeing time 3.5 hours, pH 8.6, 20:1, 2% owf, 45° C.): about 61%
Structure (SMILES): O=C(O)c1cn(C2CC2)c2cc(N3CCNCC3)c(F)cc2c1=O [cipro, ciprofloxacin]
